Assay results: US9617230B2, “Creatine prodrugs, compositions and methods of use thereof” (Farmington Pharma Development, priority 2014, dated 2017)
One block for each compound: values may come before it.

Experiments:
[1] = animals fed a diet containing up to 1% cyclocreatine; cited from earlier work
[2] = Metabolic stability in mouse liver microsomal incubations; format: in vitro ADME
Description: (§1) Incubations are conducted at 37° C. in the presence or absence of NADPH regenerating system to indicate whether metabolism proceeds via an NADPH requiring enzyme (i.e. P450s, FMOs, NADPH-P450 reductase or other oxidase enzymes). Duplicate samples of prodrugs and controls are prepared and analyzed. Stock solutions of prodrugs are prepared in DMSO (10 mM) and diluted to 0.05 mM in a mixture of 25% MeOH/pH 7.4 phosphate buffer to prepare spiking solutions. The prodrug spiking solutions are aliquoted (10 μL) into 96-well plates. Pre-warmed (37° C.) microsome solution (80 μL) is added to the wells designated for 5, 15, 30, 45 and 60 min time points and incubated for 10 min before initiating the reaction with 10 μL of NADPH regenerating solution. For t=0 min the quench solution (300 μL acetonitrile) is added directly to the prodrug containing well followed by the microsome solution and NADPH solution. Incubations of the prodrugs in heat-inactivated fractions or buffer are conducted to differentiate enzymatic from non-enzymatic degradation. At specified time points (e.g., 0, 5, 10, 20, 30 and 60 min), samples are taken and terminated with an equal volume of cold acetonitrile containing a suitable internal standard (e.g., labetalol, tolbutamide). After quenching, the plates are centrifuged at 4000 g for 20 min. Aliquots (100 μL) are transferred to the analysis plate and diluted with 400 μL ultrapure water (Millipore) for LC-MSMS quantitation of prodrug concentrations, and in some cases creatine and/or creatinine. Chromatography columns (e.g., ACE 5 Phenyl, Phenomenex C18 Synergi Hydro-RP, Atlantis HILIC Silica) are selected based upon the lipophilicity and polarity of each prodrug. LC-MSMS platforms (e.g., Sciex API4000, Sciex API6500) are also selected based on the requirements of each prodrug. The metabolic stability of the compounds of the present disclosure of in mouse liver microsomal incubations is shown in Table 6 and human liver microsomal incubations is shown in Table 7.

[3] = Stability of prodrugs in simulated intestinal fluid (SIF) with and without pancreatin; format: in vitro ADME; conditions: prodrug 10 μM, 37° C.
Description: For determination of stability in simulated intestinal fluid (SIF), prodrug (10 μM) is incubated in SIF (0.68% KH2PO4 w/v, 0.86% NaOH v/v, pH 6.8) with and without addition of pancreatin (1% w/v) at 37° C. At selected time points (e.g., 0, 15, 30, 60 and 120 min) 50 μL aliquots are removed and the reactions are terminated by addition of 150 μL of ice-cold acetonitrile. Samples are centrifuged at 4,000×g for 15 min at 4° C., and the supernatants are removed and analyzed for prodrug, creatine and creatinine concentrations by LC-MSMS (Table 3).

[4] = In vitro release of d3-creatine and d3-creatinine from d3-prodrugs in mouse liver homogenate (MLH) incubations; format: in vitro ADME
Description: For assessment of the ability of prodrugs to release creatine, and to release creatine preferentially to unwanted cyclization to creatinine, d3-labeled (deuterium labeled methyl group) prodrugs are incubated with liver homogenates (e.g., mouse, human) specially prepared to preserve N-reductase activity. The use of d3-labelled prodrugs is essential in order to distinguish prodrug-derived creatine (d3-creatine) from high concentrations of endogenous (non-labeled) creatine. Incubations (37° C.) are performed in 100 mM potassium phosphate buffer, pH 6.0 to optimize N-reductase activity. Prodrugs are tested at final concentrations of 20 μM and 200 μM. Approximately 4-5 mg of homogenate is used for each reaction. Co-factor (NADH) is included at a final concentration of 1 mM. Benzamidoxime (500 μM final concentration) is used as a positive control for N-reductase activity. N-reductase activity is confirmed by conversion of benzamidoxime into benzamidine. Negative controls include incubations without NADH (to assess NADH-independent prodrug cleavage) and incubations without liver homogenate (but with NAPD) to assess non-enzymatic prodrug cleavage under the conditions of the assay. […] Sample supernatants are analyzed by LC-MSMS (HILIC column) for determination of d3-prodrug, d3-creatine and d3-creatinine levels (Table 8).

[5] = Metabolic stability in human liver microsomal incubations; format: in vitro ADME; conditions: human liver microsomes
Description: as §1

[6] = Stability of prodrugs in simulated gastric fluid (SGF) with and without pepsin; format: in vitro ADME; conditions: prodrug 10 μM, 37° C.
Description: For determination of stability in simulated gastric fluid (SGF), prodrug (10 μM) is incubated in SGF (0.2% NaCl w/v, 0.7% HCl v/v, pH1.2) with and without addition of pepsin (3.2 g of purified pepsin per liter with an activity of 800-2500 units per mg of protein) at 37° C. At selected time points (e.g., 0, 15, 30, 60 and 120 min) 50 μL aliquots are removed and neutralized by addition of 50 μL of 0.1M sodium bicarbonate solution, followed by 150 μL of ice-cold acetonitrile. Samples are centrifuged at 4,000×g for 15 min at 4° C., and the supernatants are removed and analyzed for prodrug, creatine and creatinine concentrations by LC-MSMS (Table 2).

[7] = Stability in mouse plasma incubations; format: in vitro ADME
Description: (§2) To determine prodrug stability in mouse, rat, human or plasma from other species, prodrugs (10 μM) or positive controls (10 μM, propantheline or procaine) are incubated in undiluted plasma. Duplicate samples of prodrugs and controls are prepared and analyzed. Stock solutions of prodrugs are prepared in DMSO (10 mM) and diluted to 0.1 mM in pH 7.4 phosphate buffer to prepare spiking solutions. The prodrug spiking solutions are aliquoted (10 μL) into 96-well plates. Pre-warmed (37° C.) plasma (90 μL) is added to the wells designated for 5, 15, 30, 45 and 60 min time points; for t=0 min the quench solution (400 μL acetonitrile) is added directly to the prodrug containing well followed by 90 μL of pre-warmed plasma. At 5, 15, 30, 45 and 60 min 400 μL aliquots of acetonitrile are added to the wells to stop the reaction. After quenching, the plates are shaken for 10 min (600 rpm) and then centrifuged at 5500 g for 15 min. Aliquots (50 μL) are transferred to the analysis plate and diluted with 100 μL ultrapure water (Millipore) for LC-MSMS quantitation of prodrug concentrations, and in some cases creatine and/or creatinine. Chromatography columns (e.g., Atlantis HILIC Silica, Gemini C-18, Ultimate XB-C18) are selected based upon the lipophilicity and polarity of each prodrug. LC-MSMS platforms (e.g., Sciex API4000, Sciex API6500) are also selected based on the requirements of each prodrug. The stabilities of the compounds of the present disclosure (prodrugs) in mouse plasma incubations is shown in Table 4 and stability in human plasma incubations is shown in Table 5.

[8] = Stability in human plasma incubations; format: in vitro ADME
Description: as §2

[9] = athletes and body builders, 2-3 gm/day; cited from earlier work

- melting point: 98 to 104 °C
SMILES: [2H]C([2H])([2H])N(CCO)c1nc(=O)o[nH]1 [Example 29, 3-[2-hydroxyethyl(trideuteriomethyl)amino]-2H-1,2,4-oxadiazol-5-one]

SMILES: NC1=NCCN1CC(=O)O [cyclocreatine]
- adverse effects [1]: do not exhibit adverse effects

- melting point: 150 to 155 °C
SMILES: [2H]C([2H])([2H])N(CC(=O)O)c1nc(=O)o[nH]1 [Example 28, Step 4, 2-[(5-oxo-2H-1,2,4-oxadiazol-3-yl)-(trideuteriomethyl)amino]acetic acid]

- melting point: 120 to 123 °C
SMILES: CCOC(=O)CN(C)c1noc(=O)[nH]1 [Example 26, ethyl 2-[methyl-(5-oxo-4H-1,2,4-oxadiazol-3-yl)amino]acetate]

- melting point: 150 to 155 °C
SMILES: CN(CC(=O)O)c1noc(=O)[nH]1 [Example 27, 2-[methyl-(5-oxo-4H-1,2,4-oxadiazol-3-yl)amino]acetic acid]

- melting point: 143 to 145 °C
SMILES: [2H]C([2H])([2H])N(CC(=O)OC(C)C)c1nc(=O)o[nH]1 [Example 28, Step 5C, isopropyl 2-[(5-oxo-2H-1,2,4-oxadiazol-3-yl)-(trideuteriomethyl)amino]acetate]

- melting point: 120 to 125 °C
SMILES: [2H]C([2H])([2H])N(CC(=O)OC)c1nc(=O)o[nH]1 [Example 28, Step 3, methyl 2-[(5-oxo-2H-1,2,4-oxadiazol-3-yl)-(trideuteriomethyl)amino]acetate]

- % Remaining (No NADPH) 30 min ([2]; mouse liver microsomes, no NADPH, 30 min, 10 μM): 15.6%
- % Remaining (w/NADPH) 5 min ([2]; mouse liver microsomes, with NADPH, 5 min, 10 μM): 89.1%
- % Remaining (w/NADPH) 30 min ([2]; mouse liver microsomes, with NADPH, 30 min, 10 μM): 26.0%
- half-life at 10 μM ([2]; pH 7.4, mouse liver microsomes): 0.333 h
- CLint scaled at 10 μM ([2]; pH 7.4, mouse liver microsomes, read-out: in vivo Clint): 407 mL/min/kg
- half-life at 10 μM ([3]; simulated intestinal fluid (SIF) with pancreatin, SIF pH 6.8, title: with pancreatin (1% w/v), read-out: T1/2 (min) (+) pepsin): > 360 min
- half-life at 10 μM ([3]; simulated intestinal fluid (SIF) without pancreatin, SIF pH 6.8, title: without pancreatin, read-out: T1/2 (min) (−) pepsin): > 360 min
- Concentration (μM) at 120 min, Prodrug ([4]; Negative Control (No MLH)): 240 µM
- Concentration (μM) at 120 min, Prodrug ([4]; Prodrug + MLH + NADH): 4.70 µM
- half-life at 10 μM [5]: > 1.5 h
- % Remaining (No NADPH) 30 min ([5]; no NADPH, 30 min, 10 μM): 106%
- CLint scaled at 10 μM ([5]; read-out: in vivo Clint): < 21 mL/min/kg
- % Remaining (w/NADPH) 5 min ([5]; with NADPH, 5 min, 10 μM): 103.8%
- % Remaining (w/NADPH) 30 min ([5]; with NADPH, 30 min, 10 μM): 82.1%
- half-life at 10 μM ([6]; simulated gastric fluid (SGF) with pepsin, SGF pH 1.2 with pepsin, read-out: T1/2 (min) (+) pepsin): > 360 min
- half-life at 10 μM ([6]; simulated gastric fluid (SGF) without pepsin, SGF pH 1.2 without pepsin, read-out: T1/2 (min) (−) pepsin): > 360 min
- half-life at 10 μM [7]: > 3 h
- % Remaining 5 min ([7]; 10 μM, 5 min): 100%
- % Remaining 60 min ([7]; 10 μM, 60 min): 89.0%
- melting point: 110 to 115 °C
- half-life at 10 μM [8]: 2.57 h
- % Remaining 5 min ([8]; 5 min, 10 μM): 101%
- % Remaining 60 min ([8]; 1 h, 10 μM): 75.6%
SMILES: [2H]C([2H])([2H])N(CC(=O)OCCCCCCC)c1nc(=O)o[nH]1 [Compound E, heptyl 2-[(5-oxo-2H-1,2,4-oxadiazol-3-yl)-(trideuteriomethyl)amino]acetate]

SMILES: CN(CC(=O)O)C(=N)N.O [creatine monohydrate]
- adverse side effects [9]: without adverse side effects
